Assay results: publication PMC8773213, “In Vitro Anticancer Activity and Mechanism of Action of an Aziridinyl Galactopyranoside” (Biomedicines, 2021)
Values belong to the compound of their own block, whether it stands above or below them.

Experiments:
UV4 and AA8 cells = test: Clonogenic survival assay; type: cell-based, Chinese hamster; conditions: 3 µM, 24 h, then colonies in drug-free medium
Experimental: Cell survival after treatment was determined by clonogenic assay. AA8 and UV4 cells were seeded in 6 cm Petri dishes 4 h prior to treatment for 24 h. After that, drugs were removed and cells were allowed to form colonies for eight days. The colonies were then stained with 0.4% methylene blue in methanol for 15 min. Surviving colonies made up of more than 50 cells per colony were counted. Results were represented as percentage of survival referred to untreated cells.

A549 cells [1] = type: cell-based; conditions: A549, 48 h, antioxidant added 1 h before; MTT
Experimental: (§1) Exponentially growing cells were seeded in 96-well plates and allowed to attach and grow for 24 h. The cells were then treated with increasing concentrations of the tested drugs. At the end of the treatment period, cell viability was measured with the MTT assay or the resazurin assay, two widely used techniques.
In the case of the MTT assay, this technique detects viable cells using the ability of these cells to reduce the yellow tetrazolium MTT to an insoluble colored formazan product. Subsequently, this product was solubilized and analyzed by spectrophotometry. Dead cells cannot reduce the MTT into the colored formazan product. Briefly, 24 h after plating, cells were treated with the tested compounds for 48 h; except in experiments with DNA repair-proficient and -deficient cell lines, in which cells were only exposed for 24 h to drugs and allowed to grow for an additional 48 h in drug-free medium to allow them to repair possible DNA damage induced by the tested drugs. After the treatment period, the medium was removed, the cells were washed once with PBS and 125 μL MTT (1 mg/mL in medium) was added to each well. Plates were incubated for 2–4 h and then 80 μL 20% SDS in 0.02 M HCl was added to each well. Finally, plates were incubated overnight at 37 °C and optical densities were measured at 540 nm using an absorbance spectrophotometer microplate reader.
(§2) In both assays, cell viability was expressed as percentage compared to untreated cells. Results were expressed as the means ± standard error of the mean (SEM). All data are from at least three independent experiments.

[2] = test system: MRC-5 (Human lung non-malignant cells); test: Resazurin cell viability assay, MRC-5; type: cell-based; conditions: MRC5, 72 h, read-out: IC50 (Mean ± SEM, µM), MRC-5
Experimental: as §1
(§3) The resazurin assay is a redox-based colorimetric/fluorometric technique based on the ability of viable cells to reduce the blue compound resazurin into the pink, fluorescent and soluble product resorufin. The amount of resorufin produced is generally proportional to the number of living cells. In this assay, 24 h after seeding, cells were exposed to the tested drugs for 72 h. Then 100 μL resazurin in medium was added to each well (final concentration of 10 μg/mL) and, one hour later the fluorescence intensity was measured at 530/590 nm (excitation/emission) using a fluorescence microplate reader.
as §2

[3] = test system: VH10 (Human skin non-malignant cells); test: Resazurin cell viability assay, VH10; type: cell-based; conditions: 72 h, read-out: IC50 (Mean ± SEM, µM), VH10
Experimental: as §1, §3, §2

[4] = test system: HeLa (Human cervical carcinoma cells); test: Resazurin cell viability assay, HeLa; type: cell-based; conditions: 72 h, read-out: IC50 (Mean ± SEM, µM), HeLa
Experimental: as §1, §3, §2

[5] = test system: HepG2 (Human hepatocellular carcinoma cells); test: Resazurin cell viability assay, HepG2; type: cell-based; conditions: 72 h, read-out: IC50 (Mean ± SEM, µM), HepG2
Experimental: as §1, §3, §2

[6] = test system: HL-60 (Human acute promyelocytic leukemia cells); test: Resazurin cell viability assay, HL-60; type: cell-based; conditions: 72 h, read-out: IC50 (Mean ± SEM, µM), HL-60
Experimental: as §1, §3, §2

[7] = test system: NB4 (Human acute promyelocytic leukemia cells); test: Resazurin cell viability assay, NB4; type: cell-based; conditions: 72 h, read-out: IC50 (Mean ± SEM, µM), NB4
Experimental: as §1, §3, §2

[8] = test system: PC3 (Human prostate cancer cells); test: Resazurin cell viability assay, PC3; type: cell-based; conditions: 72 h, read-out: IC50 (Mean ± SEM, µM), PC3
Experimental: as §1, §3, §2

[9] = test system: SW480 (Human colon adenocarcinoma cells); test: Resazurin cell viability assay, SW480; type: cell-based; conditions: 72 h, read-out: IC50 (Mean ± SEM, µM), SW480
Experimental: as §1, §3, §2

[10] = test system: U2OS (Human osteosarcoma cells); test: Resazurin cell viability assay, U2OS; type: cell-based; conditions: 72 h, read-out: IC50 (Mean ± SEM, µM), U2OS
Experimental: as §1, §3, §2

[11] = test system: BJ-hTERT (hTERT-immortalized skin non-malignant BJ cells); test: Resazurin cell viability assay, BJ-hTERT; type: cell-based; conditions: Homo sapiens, 72 h, read-out: IC50 (Mean ± SEM, µM), BJ-hTERT
Experimental: as §1, §3, §2

[12] = test system: BJ-SV40T (SV40T-transformed BJ-hTERT cells); test: Resazurin cell viability assay, BJ-SV40T; type: cell-based; conditions: Homo sapiens, 72 h, read-out: IC50 (Mean ± SEM, µM), BJ-SV40T
Experimental: as §1, §3, §2

[13] = test system: BJ-RASV12 (HRASV12-transformed BJ-SV40T cells); test: Resazurin cell viability assay, BJ-RASV12; type: cell-based, human; conditions: 72 h
Experimental: as §1, §3, §2

[14] = test system: cancer cell lines versus MRC-5 and VH10 normal cell lines; test: Resazurin assay, panel of cancer cells versus normal cells; type: cell-based, human; conditions: 72 h
Experimental: as §1, §3, §2
Next, we evaluated the cytotoxic activity of AzGalp in cancer cell lines derived from solid tumors (HeLa, PC3, U2OS, HepG2 and SW480) and from hematological malignancies (NB4 and HL-60). To study the selectivity against cancer cells, MRC-5 and VH10 cells were used as normal cell lines; 5-FU was used as a positive control. All cells were treated with AzGalp or 5-FU for 72 h and cell viability was evaluated with the resazurin assay. This assay was used to determine cell viability instead of the MTT assay because the HL60 and NB4 cell lines grow in suspension. […] Leukemia cell lines were approximately 15 times more sensitive than normal cells to the cytotoxicity of our aziridine.

A549 cells [15] = test: Glycolysis inhibition (glucose consumed, lactate produced); type: cell-based, human; conditions: A549, 8 h
Experimental: Inhibition of glycolysis was determined by measuring glucose consumed (initial product of glycolysis) and lactate produced (final product of glycolysis) in untreated and treated cells. Cells were seeded in 6-well plates at a density of 10^6 cells/well and were allowed to attach for a few hours before treatment with the tested compounds for 8 h. After treatment, medium was recollected and glucose and lactate concentrations were determined using the Accutrend® Plus analyzer together with Accutrend glucose strips and BM-Lactate strips (Roche Diagnostics, Barcelona, Spain). After calibrating the instrument with glucose and lactate calibration strips, test strips were used to determine glucose and lactate levels through colorimetric oxidase mediator reactions according to the manufacturer’s instructions. The results are expressed as percentage of glucose consumption and percentage of lactate production in relation to untreated cells. Data were averaged from two independent experiments and shown as mean ± SEM.

AA8 cells = test: Comet assay (DNA damage); type: cell-based, Chinese hamster; conditions: 1 mM, 4 h
Description: The single cell gel electrophoresis assay, also known as comet assay, is a widely used technique for the study of levels of damage in cellular DNA. In this assay, individual cells embedded in agarose are lysed, electrophoresed, stained with a fluorescent dye and examined under an epifluorescence microscope. […] The quantity of DNA present in the tail is indicative of DNA damage. This assay has been described in detail by Singh et al.. We followed this protocol with minor modifications previously described. Briefly, standard slides were immersed in 1% normal melting agarose at 55 °C, left to allow the agarose to solidify and kept at 4 °C until use. Cells were seeded in 6-well plates, allowed to grow for 24 h and then cells were exposed to AzGalp or CTP (positive control) for 4 h. At the end of the treatment, cells were harvested by trypsinization, washed with PBS and resuspended in PBS at a concentration of approximately 1 million cells/mL; 10 µL cell suspension was mixed with 85 μL of low-melting agarose (LMA) at 37 °C and the mixture was quickly added to the slides with the first layer of agarose, spread using a coverslip and kept at 4 °C for 8 min to allow the LMA to solidify. The coverslips were then removed and another layer of 100 μL of LMA at 37 °C was added, covered with a coverslip and allowed to solidify at 4 °C for 8 min. After removing the coverslips, the slides were incubated in the dark for 1 h at 4 °C in a lysis buffer (pH 10.0) containing 0.25 M NaOH, 10% DMSO, 1% Triton X-100, 10 mM Tris-HCl, 100 mM Na2-EDTA and 2.5 M NaCl. Next, alkaline denaturation with electrophoretic buffer (300 mM NaOH and 1 mM Na2-EDTA) was carried out in an electrophoresis chamber for 20 min and then electrophoresis was performed at 1 V/cm for 20 min. […] DNA damage levels were quantified for each cell and expressed as percent of DNA in the tail and as the tail moment (defined as the product of the tail length and the fraction of total DNA in the tail). The results were averaged from two independent experiments and expressed as mean ± SEM.

Structure (SMILES): COc1cc([C@@H]2c3cc4c(cc3[C@@H](O[C@@H]3O[C@@H]5CO[C@@H](C)O[C@H]5[C@H](O)[C@H]3O)[C@H]3COC(=O)[C@H]23)OCO4)cc(OC)c1O [etoposide, reference compound]
Cell survival, UV4 versus AA8 (clonogenic assay) (UV4 and AA8 cells): UV4 cells were more sensitive

Structure (SMILES): OO [H2O2, hydrogen peroxide, reference compound]
Effect of MnTMPyP on cytotoxicity (A549 cells [1]): decreased in the presence of the three antioxidants
Effect of NAC on cytotoxicity (A549 cells [1]): decreased in the presence of the three antioxidants
Effect of catalase on cytotoxicity (A549 cells [1]): decreased in the presence of the three antioxidants

IC50 [4]: 66.3 ± 27 µM
IC50 [5]: 0.6 ± 0.3 µM
IC50 [6]: 0.9 ± 0.8 µM
IC50 [7]: 2.5 ± 0.3 µM
IC50 [8]: 1.5 ± 0.3 µM
IC50 [9]: 2.9 ± 1.3 µM
IC50 [10]: 6.4 ± 0.7 µM
Structure (SMILES): O=c1[nH]cc(F)c(=O)[nH]1 [5-FU, 5-fluorouracil, reference compound]
IC50 [2]: > 1000 µM
IC50 [3]: > 1000 µM
IC50 [11]: 2.4 ± 0.5 µM
IC50 [12]: 5.4 ± 0.7 µM
Sensitivity of BJ-RASV12 malignant cells relative to BJ-hTERT non-malignant cells ([13]; resazurin): did not observe this selectivity
IC50 ([13]; Homo sapiens, resazurin assay, read-out: IC50 (Mean ± SEM, µM), BJ-RASV12): 3 ± 1.4 µM
Viability of leukemia cells ([14]; HL60 and NB4, concentrations between 10 and 100 µM): higher than 20%
Viability of normal cells ([14]; MRC-5 and VH10, concentrations between 10 and 100 µM): showed cytotoxicity against these cells

Structure (SMILES): O=C(O)C(Cl)Cl [DCA, dichloroacetate, reference compound]
Glycolytic activity (glucose consumption and lactate production) (A549 cells [15]): reduced lactate production and glucose consumption

Structure (SMILES): COc1cc(C(=O)O)cc(OC)c1O [Syringic acid, reference compound]
DNA damage in comet assay (AA8 cells): does not induce DNA damage
